Reference: paper PMC6289163 (Tuberculosis (Edinburgh, Scotland), 2018)

Tested on: clinical MDR isolate (TB4001)
Assay type: cell-based, Mycobacterium tuberculosis

| SMILES | resistance of TB4001 |
| --- | --- |
| CO[C@H]1/C=C/O[C@@]2(C)Oc3c(C)c(O)c4c(O)c(c(/C=N/N5CCN(C)CC5)c(O)c4c3C2=O)NC(=O)/C(C)=C\C=C\[C@H](C)[C@H](O)[C@@H](C)[C@@H](O)[C@@H](C)[C@H](OC(C)=O)[C@@H]1C [Rifampicin] | resistant |
| NNC(=O)c1ccncc1 [Isoniazid] | resistant |
